Drawing on BindingDB's records for doi:10.1021/acsmedchemlett.9b00615 (University of Manchester, 2020), this text covers IC50 for 1 compound.

A short description of assay [1]: Inhibition of RET (unknown origin) expressed in […] cells assessed as reduction in cell viability incubated for 48 hrs by celltiter glo luminescence cell viability assay. A general note: ATP-based viability assays read luminescence as a measure of living cells.
Assay [2] can be described thus: Inhibition of KDR (unknown origin) expressed in […] cells assessed as reduction in cell viability incubated for 48 hrs by celltiter glo luminescence cell viability assay.

Structures are written as SMILES.

As to `CN(C)CCCNc1ccn2ncc(-c3ccc4c(c3)OCO4)c2n1`, the IC50 (in general, the concentration that inhibits the measured activity by half) turned out to be 4 µM in assay [1] and 9 µM in assay [2].
